According to PubChem BioAssay AID328 (DTP/NCI, 2004):
“And” between values parts separate entries of the source, which are not always exact repeats. Equal values may be shown once. Toxic doses and inconclusive results are not listed. Rule for the calls: active = survival T/C of 150% or more; inactive = T/C below 125% in these data.

Tested on: BDF1 mice, P388 leukemia ip, median survival T/C
Experiment: NCI In Vivo Anticancer Drug Screen. Data for tumor model P388 Leukemia (intraperitoneal) in B6D2F1 (BDF1) mice
Settings: endpoint: median survival time, higher = longer survival
Summary of the method: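 Mice carrying the transplantable tumour receive compound or vehicle. Survival is followed in each arm, and the treated measure is divided by the vehicle measure.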

[1] = dose: 25.0 mg/kg/injection, schedule: Q01DX009 (ip), vehicle: saline with Tween-80
[2] = dose: 25.0 mg/kg/injection, schedule: Q04DX003 (ip), vehicle: saline
[3] = dose: 100.0 mg/kg/injection, schedule: Q01DX009 (ip), vehicle: Klucel (hydroxypropylcellulose) (HPC)
[4] = dose: 200.0 mg/kg/injection, schedule: Q01DX009 (ip), vehicle: Klucel (hydroxypropylcellulose) (HPC)
[5] = dose: 50.0 mg/kg/injection, schedule: Q01DX009 (ip), vehicle: saline with Tween-80
[6] = dose: 100.0 mg/kg/injection, schedule: Q01DX009 (ip), vehicle: saline with Tween-80
[7] = dose: 200.0 mg/kg/injection, schedule: Q01DX009 (ip), vehicle: saline with Tween-80
[8] = dose: 25.0 mg/kg/injection, schedule: Q01DX009 (ip), vehicle: saline
[9] = dose: 50.0 mg/kg/injection, schedule: Q01DX009 (ip), vehicle: saline

Measured: T/C

CC1CCC2(OC1)OC1C(O)C3C4CCC5CC(OC6OC(CO)C(OC7OC(CO)C(O)C(OC8OCC(O)C(O)C8O)C7OC7OC(CO)C(O)C(OC8OC(CO)C(O)C(O)C8O)C7O)C(O)C6O)C(O)CC5(C)C4CCC3(C)C1C2C (stereo not drawn)
inactive: dose: 6.25 mg/kg/injection, schedule: Q01DX009 (ip), vehicle: saline with Tween-80 100 % of control | dose: 6.25 mg/kg/injection, schedule: Q04DX003 (ip), vehicle: saline 92 % of control | dose: 12.5 mg/kg/injection, schedule: Q01DX009 (ip), vehicle: saline with Tween-80 95 % of control | dose: 12.5 mg/kg/injection, schedule: Q04DX003 (ip), vehicle: saline 92 % of control | [1] 104 % of control | [2] 96 % of control

COC(=O)c1ccc(=O)c2nc3/c(=C/O)c(O)cc(=O)c3[nH]c12
inactive: dose: 12.5 micrograms/kg/injection, schedule: Q01DX009 (ip), vehicle: Klucel (hydroxypropylcellulose) (HPC) 101 % of control | dose: 25.0 micrograms/kg/injection, schedule: Q01DX009 (ip), vehicle: Klucel (hydroxypropylcellulose) (HPC) 97 % of control | dose: 50.0 micrograms/kg/injection, schedule: Q01DX009 (ip), vehicle: Klucel (hydroxypropylcellulose) (HPC) 97 % of control | dose: 99.0 micrograms/kg/injection, schedule: Q01DX009 (ip), vehicle: saline 100 % of control | dose: 150.0 micrograms/kg/injection, schedule: Q01DX009 (ip), vehicle: saline 109 % of control | dose: 225.0 micrograms/kg/injection, schedule: Q01DX009 (ip), vehicle: saline 113 % of control

CCOC(=O)C1CNc2ccccc2N1 (stereo not drawn)
inactive: dose: 7.18 mg/kg/injection, schedule: Q04DX003 (ip), vehicle: Klucel (hydroxypropylcellulose) (HPC) 110 % of control | dose: 14.37 mg/kg/injection, schedule: Q04DX003 (ip), vehicle: Klucel (hydroxypropylcellulose) (HPC) 105 % of control | dose: 28.75 mg/kg/injection, schedule: Q01DX001 (ip), vehicle: Klucel (hydroxypropylcellulose) (HPC) 91 % of control | dose: 28.75 mg/kg/injection, schedule: Q04DX003 (ip), vehicle: Klucel (hydroxypropylcellulose) (HPC) 105 % of control | dose: 57.5 mg/kg/injection, schedule: Q01DX001 (ip), vehicle: Klucel (hydroxypropylcellulose) (HPC) 95 % of control | dose: 57.5 mg/kg/injection, schedule: Q04DX003 (ip), vehicle: Klucel (hydroxypropylcellulose) (HPC) 109 % of control | dose: 75.0 mg/kg/injection, schedule: Q01DX009 (ip), vehicle: Klucel (hydroxypropylcellulose) (HPC) 105 % of control | dose: 115.0 mg/kg/injection, schedule: Q01DX001 (ip), vehicle: Klucel (hydroxypropylcellulose) (HPC) 91 % of control | dose: 115.0 mg/kg/injection, schedule: Q01DX009 (ip), vehicle: Klucel (hydroxypropylcellulose) (HPC) 110 % of control | dose: 115.0 mg/kg/injection, schedule: Q04DX003 (ip), vehicle: Klucel (hydroxypropylcellulose) (HPC) 95 % of control | dose: 170.0 mg/kg/injection, schedule: Q01DX001 (ip), vehicle: Klucel (hydroxypropylcellulose) (HPC) 104 % of control

CC(C)c1ccc(C(=O)C2CC2)cc1
inactive: dose: 25.0 mg/kg/injection, schedule: Q04DX003 (ip), vehicle: Klucel (hydroxypropylcellulose) (HPC) 100 % of control | dose: 50.0 mg/kg/injection, schedule: Q01DX009 (ip), vehicle: Klucel (hydroxypropylcellulose) (HPC) 100 % of control | dose: 50.0 mg/kg/injection, schedule: Q04DX003 (ip), vehicle: Klucel (hydroxypropylcellulose) (HPC) 87 % of control | [3] 113 % of control | dose: 100.0 mg/kg/injection, schedule: Q04DX003 (ip), vehicle: Klucel (hydroxypropylcellulose) (HPC) 100 % of control | [4] 113 % of control | dose: 200.0 mg/kg/injection, schedule: Q04DX003 (ip), vehicle: Klucel (hydroxypropylcellulose) (HPC) 95 % of control

O=[N+]([O-])/C=C/c1ccc2ccccc2c1
inactive: dose: 88.0 mg/kg/injection, schedule: Q04DX003 (ip), vehicle: saline sonified 116 % of control | dose: 100.0 mg/kg/injection, schedule: Q01DX009 (ip), vehicle: saline sonified 100 % of control | dose: 100.0 mg/kg/injection, schedule: Q04DX003 (ip), vehicle: saline with Tween-80 120 % of control | dose: 132.0 mg/kg/injection, schedule: Q04DX003 (ip), vehicle: saline sonified 116 % of control | dose: 200.0 mg/kg/injection, schedule: Q04DX003 (ip), vehicle: saline sonified 111 % of control | dose: 300.0 mg/kg/injection, schedule: Q04DX003 (ip), vehicle: saline sonified 116 % of control | dose: 400.0 mg/kg/injection, schedule: Q04DX003 (ip), vehicle: saline with Tween-80 90 % of control

Cc1nc2nc(C(F)(F)F)[nH]c2nc1C
inactive: [1] 99 % of control | [5] 105 % of control | [6] 102 % of control | [7] 94 % of control

CO[C@H](C(=O)[C@@H](O)[C@@H](C)O)[C@@H]1Cc2cc3cc(O)c(C)c(O)c3c(O)c2C(=O)[C@H]1O
inactive: dose: 0.12 mg/kg/injection, schedule: Q01DX009 (ip), vehicle: water 114 % of control | dose: 0.25 mg/kg/injection, schedule: Q01DX009 (ip), vehicle: water 107 % of control | dose: 0.5 mg/kg/injection, schedule: Q01DX009 (ip), vehicle: water 114 % of control | dose: 1.0 mg/kg/injection, schedule: Q01DX009 (ip), vehicle: water 99 % of control | dose: 2.0 mg/kg/injection, schedule: Q01DX009 (ip), vehicle: water 97 % of control | dose: 4.0 mg/kg/injection, schedule: Q01DX009 (ip), vehicle: water 99 % of control

CCC(C)OP1(=S)OCC(C)O1 (stereo not drawn)
inactive: dose: 100.0 mg/kg/injection, schedule: Q04DX002 (ip), vehicle: saline with Tween-80 115 % of control | dose: 200.0 mg/kg/injection, schedule: Q04DX002 (ip), vehicle: saline with Tween-80 106 % of control | dose: 400.0 mg/kg/injection, schedule: Q04DX002 (ip), vehicle: saline with Tween-80 118 % of control

Nc1n[nH]c([N+](=O)[O-])n1
inactive: dose: 100.0 mg/kg/injection, schedule: Q01DX001 (ip), vehicle: saline sonified 108 % of control | dose: 200.0 mg/kg/injection, schedule: Q01DX001 (ip), vehicle: saline sonified 100 % of control | dose: 400.0 mg/kg/injection, schedule: Q01DX001 (ip), vehicle: saline sonified 100 % of control

Cc1cc2nc3ccc(=[N+](C)C)cc-3sc2cc1N
inactive: [8] 90 % of control and 113 % of control | [2] 109 % of control and 96 % of control | [9] 100 % of control and 113 % of control | dose: 50.0 mg/kg/injection, schedule: Q04DX003 (ip), vehicle: saline 114 % of control | dose: 100.0 mg/kg/injection, schedule: Q04DX003 (ip), vehicle: saline 121 % of control

N#Cc1ccccc1CC(O)(c1ccccc1)c1ccccn1 (stereo not drawn)
inactive: [5] 100 % of control | [6] 103 % of control | [7] 115 % of control

COC(=O)C1C(O)C(C)C(OC(C)=O)C(C)/C=C\C=C(C)C(=O)Nc2c(C)c(OC(C)=O)c3c(c2O)C(=O)C(C)=C2OCOC(=C23)C(C)=CC(C)(O)C(O)C(C)C1O (stereo not drawn)
inactive: [3] 101 % of control | [4] 106 % of control | dose: 400.0 mg/kg/injection, schedule: Q01DX009 (ip), vehicle: Klucel (hydroxypropylcellulose) (HPC) 110 % of control

Fc1ccc(CSc2ncnc3c2ncn3C2CCCCO2)cc1 (stereo not drawn)
inactive: dose: 100.0 mg/kg/injection, schedule: Q04DX003 (ip), vehicle: other 100 % of control | [4] 100 % of control | dose: 200.0 mg/kg/injection, schedule: Q04DX003 (ip), vehicle: other 100 % of control | dose: 400.0 mg/kg/injection, schedule: Q04DX003 (ip), vehicle: other 105 % of control

[NH-]C(CCC(N)=O)C(=O)O.[NH-]C(CCC(N)=O)C(=O)O.[Pt+2] (stereo not drawn)
inactive: dose: 12.5 mg/kg/injection, schedule: Q01DX009 (ip), vehicle: distilled water + Tween-80 100 % of control | dose: 25.0 mg/kg/injection, schedule: Q01DX009 (ip), vehicle: distilled water + Tween-80 100 % of control | dose: 50.0 mg/kg/injection, schedule: Q01DX009 (ip), vehicle: distilled water + Tween-80 100 % of control | dose: 100.0 mg/kg/injection, schedule: Q01DX009 (ip), vehicle: distilled water + Tween-80 113 % of control

C[n+]1ccccc1/C=C/c1cccc([N+](=O)[O-])c1
inactive: dose: 5.0 mg/kg/injection, schedule: Q04DX003 (ip), vehicle: saline with Tween-80 95 % of control | dose: 10.0 mg/kg/injection, schedule: Q04DX003 (ip), vehicle: saline with Tween-80 104 % of control | dose: 20.0 mg/kg/injection, schedule: Q04DX003 (ip), vehicle: saline with Tween-80 109 % of control

CC1Cc2ccccc2SC1(C)C (stereo not drawn)
inactive: dose: 12.5 mg/kg/injection, schedule: Q01DX009 (ip), vehicle: saline 101 % of control | [8] 114 % of control | [9] 115 % of control
